The text below walks through data of patent US20050180944A1, “In situ remediation of waste in farm animal bedding substrates” (priority 2004, published 2005).

Experiment [1] concerns pig waste. Description: Seven-day test: bioremediation/degradation of pig waste suspended in water with fatty acid additives. To be noted: 0.1 g fatty acid (0.5 g coated nutrient) per bottle of aqueous pig waste mixture, 2000 ppm ammonium hydroxide, 25 degrees Celsius. How it is done:
A test was performed to determine the relative performance of various additives on the bioremediation or degradation of wastes suspended in water. Measurements of the “biological oxygen demand” (BOD) and “total suspended solids” (TSS) were taken as representative of the progress of the microbial growth and effectiveness of the degradation brought about by the microbes. Approximately five pounds of pig waste was collected from a feedlot and diluted in five gallons of deionized water. The mixture was allowed to sit for 24 hours to insure that the waste formed a uniform mixture. Five hundred milliliters (500 ml) of the aqueous waste mixture was added to each of 13 two-liter glass bottles that were closed with Teflon lined caps. Ammonium hydroxide was added to each container for a final concentration of 2000 ppm. The samples were diluted with water 2:1 and filtered to remove large particulate matter. Various fatty acids and combinations of fatty acids were added to each bottle and the bottles were placed in a tumbler at 25 degrees Celsius. Seven of the bottles were used in a seven-day test and six of the bottles were used in a twelve-day test. Standard EPA test methods were used for all test measurements.

For experiment [2], the system named is pig waste. Description: BOD and TSS of pig waste samples treated with fatty acids and combinations (test duration not given). More on the design: BOD reduction / TSS reduction: concentration or dose not given beside the values. As to conditions: treated pig waste sample. How it is done:
A test was performed to determine the relative performance of various additives on the bioremediation or degradation of wastes suspended in water. Measurements of the “biological oxygen demand” (BOD) and “total suspended solids” (TSS) were taken as representative of the progress of the microbial growth and effectiveness of the degradation brought about by the microbes.
Approximately five pounds of pig waste was collected from a feedlot and diluted in five gallons of deionized water. The mixture was allowed to sit for 24 hours to insure that the waste formed a uniform mixture. Five hundred milliliters (500 ml) of the aqueous waste mixture was added to each of 13 two-liter glass bottles that were closed with Teflon lined caps. Ammonium hydroxide was added to each container for a final concentration of 2000 ppm.
The samples were diluted with water 2:1 and filtered to remove large particulate matter. Various fatty acids and combinations of fatty acids were added to each bottle and the bottles were placed in a tumbler at 25 degrees Celsius. Seven of the bottles were used in a seven-day test and six of the bottles were used in a twelve-day test. Standard EPA test methods were used for all test measurements.
BOD (biological oxygen demand) and TSS (total suspended solids) were measured on each sample.

With `CCCCCCCCCCCC(=O)O` [Lauric], the “TSS (total suspended solids)” value in the experiment with pig waste [1] is reported as 16,040 ppm.

In the case of `CCCCC/C=C\C/C=C\CCCCCCCC(=O)O` [Linoleic, linoleic acid], the “TSS (total suspended solids)” value in the experiment on pig waste [1] is 15,780 ppm. Further, in the experiment on pig waste [2], the BOD levels stood at 6102 ppm, the BOD reduction is listed as 12.2%, the TSS levels is 439 ppm and the TSS reduction stood at 13.3%.

For `CCCCCCCC/C=C\CCCCCCCC(=O)O` [Oleic, oleic acid], the “TSS (total suspended solids)” value in the experiment on pig waste [1] is given as 15,600 ppm. In the experiment on pig waste [2], the BOD levels was found to be 6050 ppm, the BOD reduction was found to be 13.0%, the TSS levels was 407 ppm and the TSS reduction is 19.6%.

On to `CCCCCCCCCCCCCCCCCC(=O)O` [Strearic, stearic acid], for which, in the experiment on pig waste [1], the “TSS (total suspended solids)” value was 16,080 ppm. Also, in the experiment on pig waste [2], the BOD levels is recorded as 6660 ppm, the BOD reduction was 9.5%, the TSS levels amounted to 455 ppm and the TSS reduction worked out at 10.0%.
